Measured values as given in patent US20220306647A1, “NOVEL INDOLE-2-CARBOXAMIDES ACTIVE AGAINST THE HEPATITUS B VIRUS (HBV)” (AICURIS GMBH & CO. KG, priority 2019, published 2022).
Read-outs that look alike come from different tables or passages of the source.

Columns and labels:
HBV (HepAD38 cells) = assay: HBV replication assay: determination of HBV DNA from the supernatants of HepAD38 cells; assay type: cell-based; conditions: Hepatitis B virus, 144 h, HBV DNA in HepAD38 supernatant at day 6, qPCR, read-out: Cell activity
Protocol: Determination of HBV DNA from the Supernatants of HepAD38 Cells
The anti-HBV activity was analysed in the stable transfected cell line HepAD38, which has been described to secrete high levels of HBV virion particles (Ladner et al., 1997). In brief, HepAD38 cells were cultured at 37° C. at 5% CO2 and 95% humidity in 200 μl maintenance medium, which was Dulbecco's modified Eagle's medium/Nutrient Mixture F-12 (Gibco, Karlsruhe), 10% fetal bovine serum (PAN Biotech Aidenbach) supplemented with 50 μg/ml penicillin/streptomycin (Gibco, Karlsruhe), 2 mM L-glutamine (PAN Biotech, Aidenbach), 400 μg/ml G418 (AppliChem, Darmstadt) and 0.3 μg/ml tetracycline. Cells were subcultured once a week in a 1:5 ratio, but were usually not passaged more than ten times. For the assay 60,000 cells were seeded in maintenance medium without any tetracycline into each well of a 96-well plate and treated with serial half-log dilutions of test compound. To minimize edge effects the outer 36 wells of the plate were not used but were filled with assay medium. On each assay plate six wells for the virus control (untreated HepAD38 cells) and six wells for the cell control (HepAD38 cells treated with 0.3 μg/ml tetracycline) were allocated, respectively. In addition, one plate set with reference inhibitors like BAY 41-4109, entecavir, and lamivudine instead of screening compounds were prepared in each experiment. In general, experiments were performed thrice in triplicates. At day 6 HBV DNA from 100 μl filtrated cell culture supernatant (AcroPrep Advance 96 Filter Plate, […] Supor membran, PALL GmbH, Dreieich) was automatically purified on the MagNa Pure LC instrument using the MagNA Pure 96 DNA and Viral NA Small Volume Kit (Roche Diagnostics, Mannheim) according to the instructions of the manufacturer. EC50 values were calculated from relative copy numbers of HBV DNA In brief, 5 μl of the 100 μl eluate containing HBV DNA were subjected to PCR LC480 Probes Master Kit (Roche) together with 1 μM antisense primer […], 0.5 μM sense primer […], 0.3 μM hybprobes […]-FL and LC640-[…]-PH (TIBMolBiol, Berlin) to a final volume of 12.5 μl. The PCR was performed on the Light Cycler 480 real time system (Roche Diagnostics, Mannheim) using the following protocol: Pre-incubation for 1 min at 95° C., amplification: 40 cycles×(10 sec at 95° C., 50 sec at 60° C., 1 sec at 70° C.), cooling for 10 sec at 40° C. Viral load was quantitated against known standards using HBV plasmid DNA of pCH-9/3091 (Nassal et al., 1990, Cell 63: 1357-1363) and the LightCycler 480 SW 1.5 software (Roche Diagnostics, Mannheim) and EC50 values were calculated using non-linear regression with GraphPad Prism 6 (GraphPad Software Inc., La Jolla, USA).

[1] = target: T1, HBV core protein (C-terminal truncated core protein, 149 amino acids of the N-terminal assembly domain, BODIPY-FL labelled) (UniProt P03146); assay: Biochemical capsid assembly assay (fluorescence quenching)
T1 construct: fused on or other part: A single cysteine added after residue 149, at position 150; It carries the BODIPY-FL maleimide label
Outline: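 Fluorescence quenching of BODIPY-FL-labelled core dimers (1.0 to 2.0 μM) in 50 mM HEPES pH 7.5; compounds at 8 concentrations, 0.5 log-unit dilutions from top 100, 31.6 or 10 μM, 0.5% DMSO. Assembly started with NaCl to […]; fluorescence (ex 477/em 525 nm) read after 6 min. EC50 by non-linear regression.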

[2] = assembly started with NaCl, fluorescence read after 6 min, read-out: Assembly activity
[3] = read-out: Assembly activity, assembly started with NaCl, fluorescence read after 6 min

T1 sequence (P03146 whole entry, the tested form may be a part): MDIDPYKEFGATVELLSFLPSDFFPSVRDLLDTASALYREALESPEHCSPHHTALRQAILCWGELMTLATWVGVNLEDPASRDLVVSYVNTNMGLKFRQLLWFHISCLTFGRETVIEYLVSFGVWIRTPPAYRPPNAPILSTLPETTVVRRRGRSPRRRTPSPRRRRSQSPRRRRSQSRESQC

Row | Compound | EC50 (HBV (HepAD38 cells)) | IC50 [1, 2] | IC50 [1, 3]
1 | CN(C(=O)c1[nH]nc2c1CN(C(=O)c1cc3c(Cl)cccc3[nH]1)CC2)C1(c2ccc(C(=O)O)cc2)CC1 [Example 49, 4-{1-[N-methyl-5-(4-chloro-1H-indole-2-carbonyl)-2H,4H,5H,6H,7H-pyrazolo[4,3-c]pyridine-3-amido]cyclopropyl}benzoic acid] | 1 to 10 µM | < 5 µM | –
2 | CN(C(=O)c1cnn2c1CN(C(=O)c1cc3cc(F)c(Cl)cc3[nH]1)CC2)C1(c2ccc(C(=O)O)cc2)CC1 [Example 50, 4-{1-[N-methyl-5-(6-chloro-5-fluoro-1H-indole-2-carbonyl)-4H,5H,6H,7H-pyrazolo[1,5-a]pyrazine-3-amido]cyclopropyl}benzoic acid] | < 1 µM | < 5 µM | –
3 | CN(C(=O)c1cnn2c1CN(C(=O)c1cc3c(Cl)cccc3[nH]1)CC2)C1(c2ccc(C(=O)O)cc2)CC1 [Example 51, 4-{1-[N-methyl-5-(4-chloro-1H-indole-2-carbonyl)-4H,5H,6H,7H-pyrazolo[1,5-a]pyrazine-3-amido]cyclopropyl}benzoic acid] | < 1 µM | < 5 µM | –
4 | CN(C(=O)c1cnn2c1CN(C(=O)c1cc3c(F)c(F)ccc3[nH]1)CC2)C1(c2ccc(C(=O)O)cc2)CC1 [Example 52, 4-{1-[N-methyl-5-(4,5-difluoro-1H-indole-2-carbonyl)-4H,5H,6H,7H-pyrazolo[1,5-a]pyrazine-3-amido]cyclopropyl}benzoic acid] | < 1 µM | < 5 µM | –
5 | Cc1c(F)ccc2[nH]c(C(=O)N3CCn4ncc(C(=O)N(C)C5(c6ccc(C(=O)O)cc6)CC5)c4C3)cc12 [Example 53, 4-{1-[N-methyl-5-(5-fluoro-4-methyl-1H-indole-2-carbonyl)-4H,5H,6H,7H-pyrazolo[1,5-a]pyrazine-3-amido]cyclopropyl}benzoic acid] | < 1 µM | < 5 µM | –
6 | Cc1cc(F)cc2[nH]c(C(=O)N3CCn4ncc(C(=O)N(C)C5(c6ccc(C(=O)O)cc6)CC5)c4C3)cc12 [Example 54, 4-{1-[N-methyl-5-(6-fluoro-4-methyl-1H-indole-2-carbonyl)-4H,5H,6H,7H-pyrazolo[1,5-a]pyrazine-3-amido]cyclopropyl}benzoic acid] | < 1 µM | < 5 µM | –
7 | CN(C(=O)c1[nH]nc2c1CN(C(=O)c1cc3cc(F)c(Cl)cc3[nH]1)CC2)C1(c2ccc(C(=O)O)cc2)CC1 [Example 55, 4-{1-[N-methyl-5-(6-chloro-5-fluoro-1H-indole-2-carbonyl)-2H,4H,5H,6H,7H-pyrazolo[4,3-c]pyridine-3-amido]cyclopropyl}benzoic acid] | 1 to 10 µM | – | < 5 µM
8 | CN(C(=O)c1cnn2c1CN(C(=O)c1cc3cc(F)c(Cl)cc3[nH]1)CC2)C1(c2ncc(C(=O)O)cn2)CC1 [Example 57, 2-{1-[N-methyl-5-(6-chloro-5-fluoro-1H-indole-2-carbonyl)-4H,5H,6H,7H-pyrazolo[1,5-a]pyrazine-3-amido]cyclopropyl}pyrimidine-5-carboxylic acid] | 1 to 10 µM | < 5 µM | –
9 | Cc1cc(F)cc2[nH]c(C(=O)N3CCn4ncc(C(=O)N(C)C5(c6ncc(C(=O)O)cn6)CC5)c4C3)cc12 [Example 60, 2-{1-[N-methyl-5-(6-fluoro-4-methyl-1H-indole-2-carbonyl)-4H,5H,6H,7H-pyrazolo[1,5-a]pyrazine-3-amido]cyclopropyl}pyrimidine-5-carboxylic acid] | 1 to 10 µM | < 5 µM | –
10 | CN(C(=O)c1cnn2c1CN(C(=O)c1cc3ccccc3[nH]1)CC2)C1(COc2ccccc2C(=O)O)CC1 [Example 61, 2-({1-[N-methyl-5-(1H-indole-2-carbonyl)-4H,5H,6H,7H-pyrazolo[1,5-a]pyrazine-3-amido]cyclopropyl}methoxy)benzoic acid] | 1 to 10 µM | < 5 µM | –
11 | CN(C(=O)c1cnn2c1CN(C(=O)c1cc3ccccc3[nH]1)CC2)C1(COc2cccc(C(=O)O)c2)CC1 [Example 62, 3-({1-[N-methyl-5-(1H-indole-2-carbonyl)-4H,5H,6H,7H-pyrazolo[1,5-a]pyrazine-3-amido]cyclopropyl}methoxy)benzoic acid] | < 100 µM | < 5 µM | –
12 | CN1C(=O)c2c3c(nn2CCC12CC2)CCN(C(=O)c1cc2ccccc2[nH]1)C3 [Example 63, 4′-(1H-indole-2-carbonyl)-13′-methyl-4′, 8′,9′,13′-tetraazaspiro[cyclopropane-1,12′-tricyclo[7.5.0.0^2,]tetradecane]-1′,7′-dien-14′-one] | < 1 µM | < 5 µM | –
13 | CN1C(=O)c2c3c(nn2CCC12CC2)CCN(C(=O)c1cc2cc(F)c(Cl)cc2[nH]1)C3 [Example 64, 4′-(6-chloro-5-fluoro-1H-indole-2-carbonyl)-13′-methyl-4′,8′,9′,13′-tetraazaspiro[cyclopropane-1,12′-tricyclo[7.5.0.0^2, Q]tetradecane]-1′,7′-dien-14′-one] | < 1 µM | < 5 µM | –
14 | CN1C(=O)c2c3c(nn2CCC12CC2)CCN(C(=O)c1cc2c(Cl)cccc2[nH]1)C3 [Example 68, 4′-(4-chloro-1H-indole-2-carbonyl)-13′-methyl-4′, 8′,9′,13′-tetraazaspiro[cyclopropane-1,12′-tricyclo[7.5.0.0^2,7]tetradecane]-1′,7′-dien-14′-one] | < 1 µM | < 5 µM | –
15 | CN(C(=O)c1cnn2c1CN(C(=O)c1cc3c(Cl)cc(Cl)cc3[nH]1)CC2)C1(c2ccc(C(=O)O)cc2)CC1 [Example 69, 4-{1-[N-methyl-5-(4,6-dichloro-1H-indole-2-carbonyl)-4H,5H,6H,7H-pyrazolo[1,5-a]pyrazine-3-amido]cyclopropyl}benzoic acid] | < 1 µM | – | < 5 µM
16 | CCc1cc(F)cc2[nH]c(C(=O)N3CCn4ncc(C(=O)N(C)C5(c6ccc(C(=O)O)cc6)CC5)c4C3)cc12 [Example 74, 4-{1-[N-methyl-5-(4-ethyl-6-fluoro-1H-indole-2-carbonyl)-4H,5H,6H,7H-pyrazolo[1,5-a]pyrazine-3-amido]cyclopropyl}benzoic acid] | < 1 µM | < 5 µM | –
17 | CN(C(=O)c1cnn2c1CN(C(=O)c1cc3c(F)cc(F)cc3[nH]1)CC2)C1(c2ccc(C(=O)O)cc2)CC1 [Example 75, 4-{1-[N-methyl-5-(4,6-difluoro-1H-indole-2-carbonyl)-4H,5H,6H,7H-pyrazolo[1,5-a]pyrazine-3-amido]cyclopropyl}benzoic acid] | < 1 µM | < 5 µM | –
18 | CN(C(=O)c1cnn2c1CN(C(=O)c1cc3c(F)ccc(F)c3[nH]1)CC2)C1(c2ccc(C(=O)O)cc2)CC1 [Example 76, 4-{1-[N-methyl-5-(4,7-difluoro-1H-indole-2-carbonyl)-4H,5H,6H,7H-pyrazolo[1,5-a]pyrazine-3-amido]cyclopropyl}benzoic acid] | < 1 µM | < 5 µM | –
19 | CN(C(=O)c1cnn2c1CN(C(=O)c1cc3cc(F)c(F)cc3[nH]1)CC2)C1(c2ccc(C(=O)O)cc2)CC1 [Example 77, 4-{1-[N-methyl-5-(5,6-difluoro-1H-indole-2-carbonyl)-4H,5H,6H,7H-pyrazolo[1,5-a]pyrazine-3-amido]cyclopropyl}benzoic acid] | < 1 µM | < 5 µM | –
20 | CN(C(=O)c1cnn2c1CN(C(=O)c1cc3c(F)c(F)c(F)cc3[nH]1)CC2)C1(c2ccc(C(=O)O)cc2)CC1 [Example 78, 4-{1-[N-methyl-5-(4,5,6-trifluoro-1H-indole-2-carbonyl)-4H,5H,6H,7H-pyrazolo[1,5-a]pyrazine-3-amido]cyclopropyl}benzoic acid] | < 1 µM | < 5 µM | –
